Data set [1] can be described thus: Chemical stability in 50 mM phosphate buffer pH 7.4 at 37 °C. Type of data set: physicochemical. The following applies: 0.05 M phosphate buffer pH 7.4, 37 °C; read-out: t1/2 (h) PBS (converted). As for the experimental part:
(§1) The chemical stability of the TSPO-ligand MTX conjugates 3 and 4 was evaluated in 50 mM phosphate buffer solution at pH 7.4 and 37 °C; the physiological stability was also determined using a dilute rat serum solution (50% v/v) at 37 °C. The aim of this work is the synthesis of TSPO ligand-MTX conjugates in order to improve the plasma stability and having less side effects than MTX. In addition TSPO ligand-MTX conjugates could enhance the transport across BBB and due a tumor targeting effect for the TSPO moiety, might selectively deliver the antineoplastic agent to brain tumors and prolong its efficacy. The TSPO-ligand MTX conjugates 3 and 4 are stable in buffer solution at pH 7.4 and enough stable in physiological medium with their half-lives exceeding 3 h. […] In addition, CB86 (m/z = 407, [M + Na]^+) (Figure 1), most likely originating from the degradation of ligand 2, as previously shown, could be detected. Other products arising from the further degradation of the anticancer drug were found.
TSPO ligand-MTX conjugates 3 and 4 chemical stabilities were studied at pH 7.4 in 0.05 M phosphate buffer at 37 °C. […] At appropriate time intervals, aliquots of 100 µL of each sample were removed, filtered through cellulose acetate membranes (0.22 µm, Advantec MFS, Pleasanton, CA, USA), and then 20 µL of filtrates were immediately analyzed by HPLC. […]

The nature of data set [2]: Stability in diluted rat serum solution (50% v/v) at 37 °C. Type of data set: in vitro ADME. The following applies: diluted rat serum (50% v/v), pH 7.4, 50% v/v rat serum, pH 7.4, 37 °C, read-out: t1/2 (h) Diluted Rat Serum. As for the experimental part: as §1
The TSPO ligand-MTX conjugates 3 and 4 stabilities in physiological medium were studied at 37 °C in 0.05 M phosphate buffer and 0.14 M NaCl at pH 7.4, containing 50% v/v of rat serum. […] Samples were centrifuged at 3500 rpm for 10 min, and the supernatant was removed, filtered through cellulose acetate membranes (0.22 µm, Advantec MFS) and then 20 µL of filtrates were immediately analyzed by HPLC. […]

In data set [3] the target is T1, TSPO (Rattus norvegicus, UniProt P16257).
T1 construct: from tissue; host or cells: rat cerebral cortex membranes
Kind of data set: Radioligand binding assay, displacement of [3H]-PK 11195 from rat cerebral cortex membranes. The following applies: for SI (selectivity index): IC50(CBR)/IC50(TSPO); for IC50: rat cerebral cortex membranes, [3H]-PK 11195. As for the experimental part: (§2) The IC50 values were determined from the displacement curves using the reference compound [^3H]-PK 11195, for TSPO, or [^3H]flunitrazepam for CBR. The data obtained, expressed as IC50 values, as well as the ratios between CBR and TSPO affinity, respectively (Selectivity Index, SI), as a measure of the in vitro selectivity, are shown in Table 2 and were compared with unlabeled TSPO selective ligand PK 11195, and with CBR selective ligand flunitrazepam. […] Moreover, the SI of TSPO-ligand MTX conjugate 3 is similar to the reference compound PK 11195. […] Thus, the binding quantification of TSPO ligands is confounded by the expression of different forms of TSPO and to assess the potentially therapeutic use of TSPO-ligands would be appropriate to genetically test the patients.
(§3) Binding assays ([^3H]Flunitrazepam and [^3H]PK 11195 bindings) were assessed to membrane preparations from rat cerebral cortex as described previously. The IC50 values (GraphPad Prism software, (La Jolla, CA, USA)) were determined from the displacement curves using the reference compound [^3H]-PK11195, for TSPO or [^3H]flunitrazepam, for CBR, respectively. The selectivity index (SI) was calculated from: IC50(CBR)/IC50(TSPO).

Data set [4] concerns the target central-type benzodiazepine receptor (CBR). As to the kind of experiment: Radioligand binding assay, displacement of [3H]flunitrazepam from rat cerebral cortex membranes. As for the experimental part: as §2, §3
A further data set relates to C6 rat glioma cells. Kind of data set: Cytotoxicity by MTT assay, C6 cells. Type of data set: cell-based. The following applies: Glioma cell, 24 h exposure. The source says:
(§4) These cellular lines were selected for their high expression level of TSPO and, therefore, have been used extensively for in vitro experiments on the brain tumor models and for cytotoxicity studies relating to anticancer drugs, as well as TSPO-ligands and its nanodevices. The tested compounds show high cytotoxicity on all cell lines, especially for C6 rat glioma cells. In particular, the TSPO-ligand MTX α-conjugates 3 appears to be the most cytotoxic displaying a lower IC50 value compared to MTX on C6 cells.
(§5) Rat RG2 and C6 glioma cells were grown in DMEM (Dulbecco’s modified Eagle’s medium, Sigma Aldrich, Milano, Italy) nutrient supplemented with 10% heat inactivated FBS (Fetal Bovine Serum, Sigma Aldrich), 2 mM, L-glutamine, penicillin (100 U/mL), and streptomycin (100 µg/mL) at 37 °C in a humidified 5% CO2 atmosphere. Cells were fed every day and seeded in 96-well plates at a density of ~5000 cells/well for assays. MTX and TSPO ligand-MTX conjugates were dissolved in DMSO at initial concentrations of 1000 µg/mL and then diluted with medium. Cells were exposed to different concentrations of compounds (0.1–1000 nM) for 24 h.
(§6) Cell viability was evaluated by MTT (3-(4,5-dimethylthiazol-2-yl)-2,5-diphenyltetrazolium bromide) assay as previously described. In brief, 10 µL of MTT (5.0 mg/mL) was added to the cells and cultured at 37 °C, in a humidified 5% CO2 atmosphere for 2 h. After this period, medium was removed and the cells were replaced with 150 µL of a DMSO/ethanol (1:1) solution per well. The absorbance of the individual well was measured by microplate reader (Wallac Victor3, 1420 Multilabel Counter, Perkin-Elmer (Waltham, MA, USA). All experiments were repeated three times and each compound’s concentration was tested in triplicate.
In general terms: Formazan colour is commonly taken as a measure of viable cells.

Another data set concerns RG2 rat glioma cells. As to the kind of experiment: Cytotoxicity by MTT assay, RG2 cells. Format: cell-based. The following applies: Glioma cell, 24 h exposure.
Text: as §4, §5, §6

For a further data set, the system named is SF126 human glioma cells. As to the kind of experiment: Cytotoxicity by MTT assay, SF126 cells. Type of data set: cell-based. The following applies: SF-126.
In the next data set the test system is SF188 human glioma cells. Kind of data set: Cytotoxicity by MTT assay, SF188 cells. The following applies: SF-188. Format: cell-based.
The nature of data set [5]: Transport across MDCKII-MDR1 cell monolayer. The following applies: dog, MDCK-MDR1, pH 7.4.
Procedure: (§7) The apparent permeability coefficient (Papp) of each compound was calculated on the basis of the amounts permeated through MDCKII-MDR1 monolayer by the equation: Papp=VA dC/A[D]in dt where VA (dC/dt) is the linear appearance rate of mass in the receiver solution; A is the filter/cell surface area and [D]in is the initial tested compound concentration in the apical (AP) chamber. The Papp values were evaluated in apical to basolateral direction. […] On an experimental day, the integrity of the cell monolayer was assessed by measuring the transendothelial electrical resistance (TEER) value.
(§8) The bi-directional transport study was conducted as previously reported [15]. A Transwell® 12 plate consisting of differentiated MDCKII-MDR1cells plated on polyester microporous filters (12 mm diameter, 0.4 µm pore size, 0.5 mL apical volume, 1.5 mL basolateral volume) at a density of 100,000 cells/cm^2, was used for the permeability assay. The integrity of the cell monolayer was assessed by measuring the TEER value in each well, using an epithelial volt-ohm meter (EVOM). Cell monolayers with TEER 120–140 Ohm/cm^2 were used. […] Fresh assay medium was placed in the receiver compartment. […] After incubation time of 2 h, samples were removed from the apical side of the monolayer and then analyzed. […] All experiments were repeated three times and each compound was tested in triplicate.
A short description of the next data set: in vitro. The following applies: dog, MDCK-MDR1, pH 7.4.
The target in data set [6] is central-type benzodiazepine receptor (CBR). The following applies: rat cerebral cortex membranes, [3H]flunitrazepam; cited from earlier work.
Data set [7] concerns the target T1, TSPO. The following applies: cited from earlier work.

Like-named read-outs stand apart in the source and are kept apart here. Where only a bound is given, the exact number is not on record here.

Procedure for in vitro: as §7, §8

What is called IC50 is the point on the concentration scale where inhibition reaches its midpoint. As usually defined, the melting point is the temperature of the solid-liquid transition. Usually Papp stands for a coefficient for how fast a substance crosses the barrier. The low end stands for poor permeation, the high end for ready permeation. Consider `CCCN(CCC)C(=O)Cc1c(-c2ccc(Cl)cc2)nc2c(NC(=O)CNC(=O)C(CCC(=O)O)NC(=O)c3ccc(N(C)Cc4cnc5nc(N)nc(N)c5n4)cc3)cccn12` (centres unmarked) [Compound 3, 5-(2-(2-(4-Chlorophenyl)-3-(2-(dipropylamino)-2-oxoethyl)imidazo[1,2-a]pyridin-8-ylamino)-2-oxoethylamino)-4-(4-(((2,4-diaminopteridin-6-yl)methyl)(methyl)amino)benzamido)-5-oxopentanoic acid], for which the melting point was 210 °C (dec.). The half-life in data set [1] is 144 ± 25 h. Further, in data set [2], the half-life is greater than 3 h. At TSPO [3], the “SI (selectivity index)” value is given as >1.4 × 10^4 and the IC50 amounted to 7.2 ± 2.1 nM. Further, in data set [4], the IC50 was greater than 100000 nM. Besides, the IC50 in the data set with C6 rat glioma cells came to 1.2 ± 0.7 nM. In addition, the IC50 in the data set on RG2 rat glioma cells turned out to be 4.2 ± 3.2 nM. Also, the IC50 in the data set with SF126 human glioma cells was found to be 14.2 ± 4.2 nM. Moreover, in the data set on SF188 human glioma cells, half-maximal inhibition (IC50) was put at 9.2 ± 3.4 nM. Besides, the Papp at 2 h, 75 µM in data set [5] is 3.65 ×10⁻⁶ cm/s.

Consider `CN(Cc1cnc2nc(N)nc(N)c2n1)c1ccc(C(=O)N[C@@H](CCC(=O)O)C(=O)O)cc1` [MTX, 2,4-diamino-N^10-methylpteroylglutamic acid, reference compound], for which the IC50 in the data set with C6 rat glioma cells is 2.6 ± 0.8 nM; in the data set on RG2 rat glioma cells, 3.8 ± 1.5 nM; with SF126 human glioma cells it was 1.2 ± 0.3 nM; in the data set on SF188 human glioma cells it was 1.2 ± 0.2 nM. This compound also returned a Papp at 2 h, 75 µM in “in vitro” of 0.091 ×10⁻⁶ cm/s.

Turning to `CCCN(CCC)C(=O)Cc1c(-c2ccc(Cl)cc2)nc2c(NC(=O)CNC(=O)CCC(NC(=O)c3ccc(N(C)Cc4cnc5nc(N)nc(N)c5n4)cc3)C(=O)O)cccn12` (centres unmarked) [Compound 4, 5-(2-(2-(4-Chlorophenyl)-3-(2-(dipropylamino)-2-oxoethyl)imidazo[1,2-a]pyridin-8-ylamino)-2-oxoethylamino)-2-(4-(((2,4-diaminopteridin-6-yl)methyl)(methyl)amino)benzamido)-5-oxopentanoic acid], the melting point is 190 °C (dec.). Moreover, the half-life in data set [1] was 74 ± 12 h. In addition, in data set [2], the half-life is greater than 3 h. Further, on TSPO [3], the “SI (selectivity index)” value is >2.5 × 10^3 and the IC50 amounted to 40.3 ± 3.8 nM. In [4], this compound had an IC50 greater than 100000 nM. This compound showed an IC50 in the data set on C6 rat glioma cells of 2.2 ± 0.6 nM. Also, in the data set with RG2 rat glioma cells, the midpoint of inhibition, the IC50, lay at 15.2 ± 2.9 nM. For the same compound, in the data set on SF126 human glioma cells, the IC50 came out at 25 ± 2.6 nM. In the data set with SF188 human glioma cells, this compound registered an IC50 of 18.2 ± 2 nM. The compound further had a Papp at 2 h, 75 µM in data set [5] of 3.32 ×10⁻⁶ cm/s.

For the compound `CCC(C)N(C)C(=O)c1cc2ccccc2c(-c2ccccc2Cl)n1` (centres unmarked) [PK11195], the IC50 in [6] is greater than 100000 nM.

For the compound `CN1C(=O)CN=C(c2ccccc2F)c2cc([N+](=O)[O-])ccc21` [Flunitrazepam], the IC50 in [6] was 5.1 ± 0.5 nM.

On to `CCCN(CCC)C(=O)Cc1c(-c2ccc(Cl)cc2)nc2c(NC(=O)CN)cccn12` [Compound 2, N,N-dipropyl-[2-(8-(2-aminoacetamido)-2-(4-chlorophenyl)imidazo[1,2-a]pyridin-3-yl)]acetamide], for which the “SI (selectivity index)” value on TSPO [7] (IC50(CBR)/IC50(TSPO)) is >4.1 × 10^3. The IC50 at TSPO [7] (read-out: IC50 (nM) TSPO Cortex, rat cerebral cortex membranes, [3H]-PK 11195) was 24 ± 4.2 nM; in [6], greater than 100000 nM.

Source of the values: publication PMC4926499, “TSPO Ligand-Methotrexate Prodrug Conjugates: Design, Synthesis, and Biological Evaluation” (International Journal of Molecular Sciences, 2016).
